This experiment addresses T1, M1 muscarinic receptor (Homo sapiens, UniProt P11229).
T1 sequence (P11229 1-460): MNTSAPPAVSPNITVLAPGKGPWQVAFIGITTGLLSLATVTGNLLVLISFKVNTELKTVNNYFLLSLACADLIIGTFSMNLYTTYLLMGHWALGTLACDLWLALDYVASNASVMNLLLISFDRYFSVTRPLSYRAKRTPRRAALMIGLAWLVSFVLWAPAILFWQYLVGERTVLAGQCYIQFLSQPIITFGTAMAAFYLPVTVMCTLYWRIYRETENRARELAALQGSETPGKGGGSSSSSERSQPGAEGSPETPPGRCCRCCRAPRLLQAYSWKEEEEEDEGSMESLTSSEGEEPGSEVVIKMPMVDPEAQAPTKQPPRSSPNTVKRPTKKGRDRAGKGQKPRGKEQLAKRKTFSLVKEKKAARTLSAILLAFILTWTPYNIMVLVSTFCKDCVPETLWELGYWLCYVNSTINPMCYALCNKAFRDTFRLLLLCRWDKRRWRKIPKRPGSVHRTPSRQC
Put plainly: accumulation of IPX, M1 CHO cells transfected with G15 (M1Gq+G15). The experiment is classed as cell-based. Also noted: host or cells: CHO cells. As to the method: To determine level of cAMP, cells in suspension were pre-incubated for 1 h with 0.4 μM [^3H]adenine, washed, and incubated for 10 min in the presence of isobutylmethylxanthine and 10 μM forskolin. […] Incubation was ended by addition of 0.2 ml of 2.5 M HCl to the samples. Samples were applied to alumina columns (1.5 g of alumina per column), washed with 2 ml ammonium acetate (pH=7.0) and eluted from columns with 4 ml ammonium acetate and measured by liquid scintillation spectrometry. […] The incubation was stopped by addition of 0.5 ml of chloroform methanol HCl mixture (2:1:0.1). After separation of water and organic phases, 0.6 ml of water phase was applied to Dowex columns (1.5 g of Dowex per column), washed by 20 ml of 60 mM ammonium formate/5 mM sodium borate buffer and eluted from columns with 4 ml of 1M ammonium formate/0.1 formic acid buffer and measured by liquid scintillation spectrometry.
Measurements of the production of cAMP and inositol phosphates: Levels of second messengers cAMP and inositol phosphates were determined in radiochemical chromatography assays as described previously. To determine level of cAMP, cells in suspension were pre-incubated for 1 h with 0.4 μM [^3H]adenine, washed, and incubated for 10 min in the presence of isobutylmethylxanthine and 10 μM forskolin. […] Incubation was ended by addition of 0.2 ml of 2.5 M HCl to the samples. Samples were applied to alumina columns (1.5 g of alumina per column), washed with 2 ml ammonium acetate (pH=7.0) and eluted from columns with 4 ml ammonium acetate and measured by liquid scintillation spectrometry. […] For this purpose, new CHO cell lines stably expressing promiscuous G15 G-protein and M2 or M4 receptor were generated by transfection with pCMV/hygro vector and hygromycin selection. To determine the rate of formation of inositol phosphates IPX, suspended cells were pre-incubated with 0.1 μM [^3H]myo-inositol for 60 min, washed, and incubated with 10 mM LiCl for 15 min. […] The incubation was stopped by addition of 0.5 ml of chloroform methanol HCl mixture (2:1:0.1). After separation of water and organic phases, 0.6 ml of water phase was applied to Dowex columns (1.5 g of Dowex per column), washed by 20 ml of 60 mM ammonium formate/5 mM sodium borate buffer and eluted from columns with 4 ml of 1M ammonium formate/0.1 formic acid buffer and measured by liquid scintillation spectrometry.
For bi-phasic response, curves were inhibitory and stimulatory phase were fitted separately. Operational Model of Functional Agonism
[formula] where y is functional response at concentration of tested compound x, EMAX is maximal response of the system, KA is equilibrium dissociation constant and nH is slope factor. Eq. 5 was fitted to data from functional experiments. Eq. 5 was fitted to data by the two-step procedure described earlier. […] In the second step, Eq. 5 with EMAX fixed to the value determined in the first step was fitted to individual experimental data sets. Relative Intrinsic Activity

[1] abbreviates: M1Gq + G15 (↑IPX), Table 8, relative to carbachol.
Where [2] appears, read: M1Gq + G15 (↑IPX), Table 8, to carbachol.
The mark [3] stands for this setting: M1Gq + G15 (↑IPX), Table 8, read-out: pEC50 (converted).
[4] abbreviates: M1Gq + G15 (↑IPX), Table 8, read-out: pKA (converted).

Consider three molecules from patent US11591323B2, “Muscarinic agonists as non-steroidal and non-opioid analgesics and methods of use thereof” (Barry University, priority 2019, dated 2023).

Like-named read-outs stand apart in the source and are kept apart here.

For `C1=CCN(Cc2cccs2)CC1.Cl` [Compound 6A, 1-[(thiophen-2-yl)methyl]-1,2,3,6-tetrahydropyridin-1-ium chloride], for the setting “M1Gq + G15 (↑IPX), Table 8”, the “E′MAX” value is on record as 2.0 ± 0.2 fold increase and the τ worked out at 0.03 ± 0.01. For the same molecule, the RAi under setting [1] was determined as 0.0010 ± 0.0001. Besides, under setting [2], the “Δlog(τ/KA)” value was determined as 2.98 ± 0.26. Besides, the EC50 under setting [3] is 7940 nM. For the same molecule, under setting [4], the Kd was 7940 nM.

Consider `C[N+]1(Cc2cccs2)CC=CCC1.[I-]` (stereo not drawn) [Compound 7A, 1-methyl-1-[(thiophen-2-yl)methyl]-1,2,3,6-tetrahydropyridin-1-ium iodide], for which, for the setting “M1Gq + G15 (↑IPX), Table 8”, the “E′MAX” value is given as 4.6 ± 0.4 fold increase and the τ is on record as 0.12 ± 0.01. In addition, under setting [1], the RAi stood at 0.0111 ± 0.0002. For the same molecule, the “Δlog(τ/KA)” value under setting [2] stood at 1.96 ± 0.16. For the same molecule, the EC50 under setting [3] is 2630 nM. Also, under setting [4], the Kd was 3160 nM.

With `O=C1CCCN1CC#CCN1CCCC1` [oxotremorine, reference compound], the EC50 is 52.5 nM, the “E′MAX” value is given as 25 ± 2 fold increase, the Kd is 200 nM and the RAi amounted to 3.71 ± 0.29. The “Δlog(τ/KA)” value is −0.57 ± 0.06 and the τ is given as 2.6 ± 0.3.
